# Measurements published in ChEMBL document CHEMBL3507680, “University of Dundee, Gates Library screen for HepG2 cell viability”.
# Test: Human HepG2 cell viability assay in 384 well format
# Format: toxicity, cell-based
# Design: dose 125 nL, time 70.5 hour; concentration not given beside the values
# Details: HepG2 cells, read-out: Inhibition
row,SMILES,cytotoxicity at 70.5 h
1,O=C(Nc1ccccc1)c1cc2n(n1)CCCN(C(=O)N1CCCC1)C2,22.6%
2,CNc1nc(C(=O)N2CCC3(CCCN(CC4CC4)C3=O)C2)cs1 (stereo not given),-1.68%
3,CN1CCC(N(Cc2ccncc2)Cc2nc3c(s2)CCCC3)CC1,-11.2%
4,O=C1CC[C@@H](CN(Cc2ccncc2)Cc2nc(-c3cccs3)no2)N1,-3.48%
5,c1ccc(-c2nc3c(c(NCc4nnc5n4CCC5)n2)CCNC3)cc1,-7.92%
6,Cc1ccnn1CCC(=O)N(Cc1ccsc1)CC(C)C,-2.24%
7,O=C1OC2(CCN(CC3CCCO3)CC2)CN1CCc1ccccc1 (stereo not given),2.25%
8,CN(CCc1ccccc1)C(=O)CN1C(=O)OC[C@@H]1c1ccccc1,23.5%
9,O=C1CCC(c2ccccc2)(c2ccccc2)CN1CCO,-3.47%
10,Cn1c(N2CCOCC2)nc2cc(C(=O)N3CC(O)CO3)ccc21 (stereo not given),32.1%
11,CN(C)C1(CNc2nccc(C3CCCC3)n2)CCOCC1,-4.46%
12,C[C@@H]1CN(C2(C(=O)N3CCSCC3)Cc3ccccc3C2)C[C@H](C)O1,2.94%
13,FC(F)(F)c1ccnc(N2CCCC(N3CCOCC3)C2)c1 (stereo not given),9.74%
14,Oc1ccccc1-c1cc(-c2nc(C3CC3)n[nH]2)[nH]n1,-6.44%
15,Cc1ccc(-c2ccnc(N3CCC4(CC3)CNC(=O)C4)n2)c(C)n1,15.1%
16,C[C@@H]1CN(c2nc(N)nc3c2CCC3)C[C@]1(C)O,1.03%
17,CCn1cncc1-c1nc2c([nH]1)CC(C)(C)CNC2=O,-3.18%
18,CC(C)(C)c1ccc(-n2ncc3c2CCCC3N)cc1 (stereo not given),-3.43%
19,CCc1nc(C)c(CN2CCN(c3ncnc4scc(C)c34)CC2)[nH]1,-9.72%
20,CCc1noc(C2CC(=O)N(CCN(C)C)C2)n1 (stereo not given),-3.23%
21,CN1CCN2CCN(Cc3cc(=O)n4c5c(cccc35)CCC4)CC2C1 (stereo not given),-13.5%
22,CCCc1n[nH]c(=O)n1Cc1ccccc1F,2.4%

row,SMILES,cytotoxicity at 70.5 h
1,Cc1cc2cc(NC(=O)Cn3ncc(N4CCCC4)cc3=O)ccc2o1,15.3%
2,CSCC(=O)N1C[C@H](c2ccc(C)o2)[C@@H](N)C1,-3.37%
3,Oc1cccc(CN2CCN(c3nccc(CCC(F)(F)F)n3)CC2)c1,-3.66%
4,O=C(O)c1ccc(C2CCCN(C(=O)c3ccc[nH]3)C2)cc1 (stereo not given),-6.26%
5,O=C1CC(C(=O)NCCN2CCOC2=O)c2cc(F)ccc2N1 (stereo not given),2.37%
6,CC(C)c1nnc(N2C[C@@H](CN(C)CCO)[C@@H](CO)C2)s1,12.7%
7,CS(=O)(=O)NCC(=O)N[C@H]1CN(CC2CC2)C[C@@H]1c1ccccc1,-9.72%
8,O=C1CCC(CCC(=O)N2CCC2c2cccs2)=NN1 (stereo not given),-13.3%
9,O=C(c1n[nH]c2c1CCC2)N1CCCC1c1nc(-c2ccccn2)no1 (stereo not given),-3.03%
10,CCn1ccnc1CN1CCCC(N(C)CCc2ccccc2)C1 (stereo not given),-1.22%
11,Cc1nccn1Cc1nnc(C2CCCN(c3ncccn3)C2)n1C (stereo not given),15.5%
12,O=C1CN(CCCNC(=O)Nc2cccc(Cl)c2F)CCN1,-2.99%
13,Cn1ccnc1CN(CCO)C(=O)c1cc2ccccc2o1,9.95%
14,COc1ccccc1S(=O)(=O)N1CCN(C)[C@@H]2CS(=O)(=O)C[C@@H]21,24.4%
15,Cc1n[nH]c(SCCNC2CCN(c3nc4ccccc4s3)CC2)n1,2%
16,CN(C)S(=O)(=O)CCNc1ncc2c(n1)CCN2c1ccccc1,-6.26%
17,CNc1ccnc(NCCSc2nccn2C)n1,-1.64%
18,Cc1cc(N2CCCN(C(=O)Cc3cc(F)cc(F)c3)CC2)ccn1,-1.71%
19,CC1(C)[C@H]2CC=C(CN3CCCn4nc(C(=O)NCCO)cc4C3)[C@@H]1C2,-4.77%
20,COc1cc(-c2cnnc(NCCSC)n2)cc(OC)c1OC,-5.18%
21,CCc1nn(C)c(Cl)c1CN(CCOC)Cc1cnn(C)c1,0.921%
22,Cc1ccc2nc(CN3CCC(O)(Cn4ccnc4)CC3)cc(O)c2c1,-7.59%

row,SMILES,cytotoxicity at 70.5 h
1,Cc1ccsc1CCNC(=O)CCC(=O)NC1CCCC1,-15.3%
2,Cn1ccnc1C1CCCN(C(=O)c2ccncc2F)C1 (stereo not given),-5.94%
3,CCC[C@H]1CN(CCCO)C[C@@H]1NC(=O)Cn1cc(C)cn1,-4.28%
4,O=C(c1coc(COc2cccc3cnccc23)n1)N1CCSCC1,-5.09%
5,CCSCCNc1cc(C)nc2c(C)c(C)nn12,-4.65%
6,COc1cccc(-c2n[nH]c3c2CN(C(=O)c2oc(C)cc2C)CC3)c1,-0.91%
7,Cc1ccc([C@@H]2CN(S(=O)(=O)c3ccccc3)C[C@H]2N(C)C)cc1,-9.61%
8,Cc1cnc(C)c(N2CCC3(CCCN(C4CCOCC4)C3=O)C2)n1 (stereo not given),-8.78%
9,CSc1ccc(CN(CCO)C(=O)CCc2ccc(O)cc2)cc1,-16.6%
10,Nc1ccc(-c2cc(O)cc(CCC3CCCCN3)c2)cn1 (stereo not given),-5.09%
11,CCCN1CCC(N2CCOC(Cc3cccc(OC)c3)C2)CC1 (stereo not given),9.86%
12,Cc1noc(C)c1CN1C[C@@H]2CC[C@H](C1)N(Cc1cc(F)cc(F)c1)C2,-14.1%
13,COCCn1cncc1CN1CCC(C(C)=O)(c2ccccc2)CC1,-15.1%
14,c1ccc(CN2CCC(Cc3noc(C4CC4)n3)CC2)cc1,-5.84%
15,CNC(=O)[C@@H]1C[C@@H](n2cc(-c3ccc(Cl)cc3)nn2)CN1,13.9%
16,Cc1nnc(CN2C[C@H](NC(=O)C3CCOCC3)[C@@H](C(C)C)C2)s1,-6.56%
17,CCc1nc(CC2CN(c3ncnc4sc(C)c(C)c34)CCO2)no1 (stereo not given),-19.7%
18,CSc1ncccc1C(=O)N1C[C@H]2CC[C@@H]1CN(CC(=O)N(C)C)C2,45.6%
19,CN(C)C[C@H]1CC[C@@H](Cc2ccc3c(cnn3C)c2)O1,-11.9%
20,Nc1ccnc(N2CCC(CCc3ccccc3)(C(=O)O)CC2)n1,14.5%
21,CNC(=O)[C@@H]1C[C@@H](NC(=O)c2ccc(OC)o2)CN1Cc1sccc1C,1.26%
22,CCN1CC(C(=O)NCc2nn(CC)c3ccccc23)CCC1=O (stereo not given),10.8%

row,SMILES,cytotoxicity at 70.5 h
1,CCN1CCC2(CCC1=O)CN(c1cnc3ccccc3n1)CCN2C (stereo not given),-2.99%
2,N[C@@H]1c2ccccc2C2(CCN(c3cc(C(F)(F)F)ccn3)CC2)[C@H]1O,39.4%
3,COc1cccc(-c2noc(-c3ccc(NCCCO)nc3)n2)c1OC,2.28%
4,Cc1nc(N2CCN(C)CC2)ncc1C(=O)N1CC[C@](C)(O)[C@H](C)C1,-7.36%
5,CNCC(=O)N[C@H]1CN(c2nc(C)c3c(n2)CCCC3)C[C@@H]1C1CC1,-11.2%
6,CCn1cnnc1CCNCc1c[nH]nc1-c1ccc(F)cc1,5.79%
7,Cn1c(Cn2cccn2)nnc1C1CCN(Cc2ccccc2Cl)CC1,-4.12%
8,Cc1cccc(-c2nc(N)nc3c2CN(C(=O)c2ccncn2)C3C)c1 (stereo not given),-18.2%
9,Cc1ccncc1C(=O)N1C[C@H]2CN(CC3CCC3)C[C@@]2(C(=O)O)C1,-8.6%
10,CN1CCC(n2nc(Cc3cccc(Cl)c3)nc2Cn2ccnc2)CC1,-8.49%
11,COc1cccc(OC2CN(C(=O)CCn3cnc4ccccc43)C2)c1,29.2%
12,Cc1ccc([C@@H]2CN(C(=O)c3cc(C)n[nH]3)C[C@H]2NC(=O)C2CC2)cc1,6.77%
13,CC(C)c1nc(CCN(C)c2nccc(N3CCCC(O)C3)n2)no1 (stereo not given),-8.03%
14,CCc1ccc(CN2CCOC(Cc3cccc(F)c3)C2)nc1 (stereo not given),-5.34%
15,CC1(C)CNC(=O)c2nc(CCN3CCC(O)CC3)[nH]c2C1,-1.47%
16,OC1CCN(CCNc2ncc3c(n2)CCN3c2ccccc2)CC1,-7.98%
17,O=C(c1cccc(-n2cccn2)c1)N1CCCOC(CN2CCCC2)C1 (stereo not given),0.244%
18,CC(=O)Nc1ccc(Cl)c(C(=O)N(C)Cc2nc(C)c[nH]2)c1,-8.28%
19,COc1cccc(Cl)c1C(C(=O)O)N1CCC(Cn2cccn2)CC1 (stereo not given),17.9%
20,O=C(NC1CCCN(CCCc2ccccc2)C1)c1ccc(Cl)s1 (stereo not given),-4.66%
21,Cc1ccc(F)c(NC(=O)CCC(=O)N(C)Cc2nc(C)c[nH]2)c1,-5.55%
22,COc1ccc2c(C)c(C(=O)NCC3CN(S(C)(=O)=O)CCO3)oc2c1 (stereo not given),16.6%

row,SMILES,cytotoxicity at 70.5 h
1,O=C(CO)N1CCCC(N2CCN(c3ccccc3F)CC2)C1 (stereo not given),-0.739%
2,COc1ccc(OC)c(C2CCN(C(=O)CCc3n[nH]c(N)n3)C2)c1 (stereo not given),12.4%
3,CC1(C)CN(C(=O)c2ccccc2-n2cncn2)CC1(C)O (stereo not given),18.2%
4,Cc1ccc2nc(CN3CCN(C4CCCC4)C(=O)C3)cc(O)c2c1,9.29%
5,c1cncc(-c2noc(CCNc3ncnc4c3CCNCC4)n2)c1,-7.7%
6,CC(=O)N1C[C@H](NC(=O)c2ccnc(N)c2)[C@@H](C(C)C)C1,3.14%
7,Cc1ccc(C)c2c1NC(=O)C2CC(=O)O (stereo not given),2.65%
8,COCCn1ccnc1C1CCCN(C(=O)c2cc(F)cc(F)c2)C1 (stereo not given),-3.01%
9,Cc1cc(N2CCC(N3CCOCC3)C2)n2nc(C)c(C)c2n1 (stereo not given),-4.03%
10,O=C(c1cnc(O)cc1O)N1CCCC(CCc2ccccc2F)C1 (stereo not given),-11.4%
11,O=C(CCn1cccn1)N1CCC(C2CCN(c3ncccn3)CC2)C1 (stereo not given),-6.6%
12,CCC[C@@H]1CN(Cc2cc3c(cc2OC)OCO3)C[C@H]1C(=O)O,-2.47%
13,CCN(Cc1ccncc1)C1CCCN(C/C=C/c2ccc(F)cc2)C1 (stereo not given),-3.49%
14,OCC1(Cc2ccc(Cl)cc2)CCN(Cc2ccccc2O)CC1,-4.64%
15,Cc1cc(C(=O)N2C[C@H]3CCC[C@@]3(CO)C2)c2ccc(F)cc2n1,-1.1%
16,Cc1cccc(C(C(=O)N2CCN(C(=O)c3ccc[nH]3)CC2)N(C)C)c1 (stereo not given),-8.99%
17,COc1ccccc1OC1CN(C(=O)C(c2ccccc2F)N(C)C)C1 (stereo not given),-0.928%
18,CC(=O)Nc1cccc(C(=O)N(C)C(C)Cc2cc(C)ccn2)c1 (stereo not given),-2.97%
19,CCN(CC)C(=O)Cn1cc(-c2nc(C(C)C)no2)nn1,-9.42%
20,COc1ccc(-c2ncc(-c3nccn3CCN(C)C)cn2)cc1,-10.5%
21,COc1nccnc1-c1cc(NC2CCCC2)nc2[nH]ccc12,-16.1%
22,CCNCCc1nc2cc(F)ccc2[nH]1,-4.56%
